Measured values published in publication PMC13147314 (The Febs Journal, 2025).

Legend:
PsGK = target: T1, PsGK (Pseudoalteromonas sp. AS-131, UniProt H7CHS4, C325S); test: G6PD-coupled NADPH assay at […] nm, Lineweaver-Burk; assay type: biochemical; settings: 1, 25 and 40 °C
T1 construct: gene glk; full length, cloned in pET-16b, expressed in E. coli BL21 (DE3), purified by ammonium sulfate and anion exchange (no tag mentioned); about 35 kDa subunit, 79 kDa homodimer by gel filtration

EcGK = target: T2, EcGK (Escherichia coli, UniProt P0A6V8); test: G6PD-coupled NADPH assay at […] nm, Lineweaver-Burk; assay type: biochemical; settings: 25 °C, pH 7.6, 20 mM Tris-HCl, 10 mM MgCl2, co-substrate glucose, 1 mM DTT; also measured at 1 and 40 °C
T2 construct: gene glk; full length, cloned in pET-16b, expressed in E. coli BL21 (DE3), purified by ammonium sulfate and anion exchange (no tag mentioned); about 35 kDa subunit, 59 kDa homodimer by gel filtration
T2 sequence (P0A6V8 2-321): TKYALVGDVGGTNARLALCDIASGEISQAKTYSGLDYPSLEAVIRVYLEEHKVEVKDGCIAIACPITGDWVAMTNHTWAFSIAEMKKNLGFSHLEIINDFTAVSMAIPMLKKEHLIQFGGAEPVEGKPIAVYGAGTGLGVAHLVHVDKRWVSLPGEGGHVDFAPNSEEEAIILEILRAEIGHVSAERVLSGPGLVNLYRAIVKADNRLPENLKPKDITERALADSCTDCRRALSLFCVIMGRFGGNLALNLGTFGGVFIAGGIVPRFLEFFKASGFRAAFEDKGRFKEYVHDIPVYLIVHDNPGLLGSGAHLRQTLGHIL

[1] = target: the molecule itself; test: SEC; gel filtration on HiLoad 16/60 Superdex 200 prep grade; molecular weights estimated and compared with about 35 kDa by SDS/PAGE; monomers to dimer
purified protein = substrate: Nc1ncnc2c1ncn2[C@@H]1O[C@H](COP(=O)(O)OP(=O)(O)OP(=O)(O)O)[C@@H](O)[C@H]1O; test: purified protein; assay type: biochemical, Pseudoalteromonas sp. AS-131; settings: 25 °C, pH 7.6, 20 mM Tris-HCl, 10 mM MgCl2, co-substrate glucose, 1 mM DTT, also measured at 1 and 40 °C

T1 sequence (H7CHS4 entry or part of it C325S): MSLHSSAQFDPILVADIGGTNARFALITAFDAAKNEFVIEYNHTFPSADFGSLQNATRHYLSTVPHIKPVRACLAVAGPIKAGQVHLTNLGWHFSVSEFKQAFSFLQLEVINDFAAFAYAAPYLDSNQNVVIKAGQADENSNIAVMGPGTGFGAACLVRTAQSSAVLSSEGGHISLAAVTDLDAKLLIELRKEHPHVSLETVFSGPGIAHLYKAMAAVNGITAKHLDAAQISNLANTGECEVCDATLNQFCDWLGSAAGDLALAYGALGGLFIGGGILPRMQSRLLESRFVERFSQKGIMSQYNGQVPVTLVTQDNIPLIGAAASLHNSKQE

For `Nc1ncnc2c1ncn2[C@@H]1O[C@H](COP(=O)(O)OP(=O)(O)OP(=O)(O)O)[C@@H](O)[C@H]1O` [ATP], the K m (PsGK; pH 7.6, 10 mM MgCl2, co-substrate glucose) was “the catalytic efficiency (k cat/K m) of C325S exceeded that of WT” and the K m (EcGK) was 1110 ± 80 µM.

For `OC[C@H]1OC(O)[C@H](O)[C@@H](O)[C@@H]1O` (stereo partly drawn) [glucose], the K m (PsGK; pH 7.6, 10 mM MgCl2, co-substrate ATP) was “the catalytic efficiency (k cat/K m) of C325S exceeded that of WT”.

B1: glucokinase from Escherichia coli wild-type (enzyme, Escherichia coli K-12)
chain: T2 sequence (P0A6V8 2-321)
notes: glucokinase (EcGK) of Escherichia coli K-12, encoded by glk, UniProt P0A6V8; the gene was amplified from genomic DNA and cloned into pET-16b; also called EcGK; EcGK WT; source: E. coli BL21 (DE3), purified (ammonium sulfate fractionation, anion exchange HiTrap Q HP)
In the case of B1, the “stoichiometry N” value [1] is reported as 2.

B2: glucokinase from Pseudoalteromonas sp. AS-131 wild-type (enzyme, UniProt H7CHS4 1-332, looked up)
chain: MSLHSSAQFDPILVADIGGTNARFALITAFDAAKNEFVIEYNHTFPSADFGSLQNATRHYLSTVPHIKPVRACLAVAGPIKAGQVHLTNLGWHFSVSEFKQAFSFLQLEVINDFAAFAYAAPYLDSNQNVVIKAGQADENSNIAVMGPGTGFGAACLVRTAQSSAVLSSEGGHISLAAVTDLDAKLLIELRKEHPHVSLETVFSGPGIAHLYKAMAAVNGITAKHLDAAQISNLANTGECEVCDATLNQFCDWLGSAAGDLALAYGALGGLFIGGGILPRMQSRLLESRFVERFSQKGIMSQYNGQVPVTLVTQDNIPLIGAAACLHNSKQE
notes: glucokinase (PsGK) of Pseudoalteromonas sp; AS-131, UniProt H7CHS4; amplified with primers that carry the start and the stop codon and cloned into pET-16b; also called PsGK; PsGK WT; source: E. coli BL21 (DE3), purified (ammonium sulfate fractionation, anion exchange HiTrap Q HP)
B2 was tested, and the “stoichiometry N” value [1] was 2 and the Km (purified protein) was 1550 ± 170 µM.
